Data: PubChem BioAssay AID248 (DTP/NCI, 2004)
Where “and” joins values, the source holds several entries; their conditions need not be identical. Identical values can stand only once. Inconclusive results and toxic doses are left out.

Test system: L1210 leukemia ip in BDF1 mice, survival T/C
Assay: NCI In Vivo Anticancer Drug Screen. Data for tumor model L1210 Leukemia (intraperitoneal) in B6D2F1 (BDF1) mice
Settings: endpoint: mean survival time, higher = longer survival
Method: The antitumor activity of compounds was measured in mice bearing transplantable tumors. Survival or tumor size were measured and the results are expressed as the measurement made in the treated group (T) divided by the measurement made in the vehicle treated control group (C). The tumor model used in this assay is L1210 Leukemia (intraperitoneal) in B6D2F1 (BDF1) mice

[1] = dose: 100.0 mg/kg/injection, schedule: Q04DX003 (ip), vehicle: Klucel (hydroxypropylcellulose) (HPC)
[2] = dose: 200.0 mg/kg/injection, schedule: Q04DX003 (ip), vehicle: Klucel (hydroxypropylcellulose) (HPC)
[3] = dose: 400.0 mg/kg/injection, schedule: Q04DX003 (ip), vehicle: Klucel (hydroxypropylcellulose) (HPC)
[4] = dose: 100.0 mg/kg/injection, schedule: Q01DX009 (ip), vehicle: Klucel (hydroxypropylcellulose) (HPC)
[5] = dose: 200.0 mg/kg/injection, schedule: Q01DX009 (ip), vehicle: Klucel (hydroxypropylcellulose) (HPC)
[6] = dose: 400.0 mg/kg/injection, schedule: Q01DX009 (ip), vehicle: Klucel (hydroxypropylcellulose) (HPC)
[7] = dose: 100.0 mg/kg/injection, schedule: Q01DX001 (ip), vehicle: saline
[8] = dose: 200.0 mg/kg/injection, schedule: Q01DX001 (ip), vehicle: saline
[9] = dose: 300.0 mg/kg/injection, schedule: Q01DX001 (ip), vehicle: saline
[10] = dose: 400.0 mg/kg/injection, schedule: Q01DX001 (ip), vehicle: saline
[11] = dose: 25.0 mg/kg/injection, schedule: Q04DX003 (ip), vehicle: Klucel (hydroxypropylcellulose) (HPC)
[12] = dose: 50.0 mg/kg/injection, schedule: Q04DX003 (ip), vehicle: Klucel (hydroxypropylcellulose) (HPC)
[13] = dose: 50.0 mg/kg/injection, schedule: Q01DX001 (ip), vehicle: carboxymethylcellulose (CMC)
[14] = dose: 100.0 mg/kg/injection, schedule: Q01DX001 (ip), vehicle: carboxymethylcellulose (CMC)
[15] = dose: 200.0 mg/kg/injection, schedule: Q01DX001 (ip), vehicle: carboxymethylcellulose (CMC)
[16] = dose: 400.0 mg/kg/injection, schedule: Q01DX001 (ip), vehicle: carboxymethylcellulose (CMC)
[17] = dose: 100.0 mg/kg/injection, schedule: Q04DX002 (ip), vehicle: Klucel (hydroxypropylcellulose) (HPC)
[18] = dose: 200.0 mg/kg/injection, schedule: Q04DX002 (ip), vehicle: Klucel (hydroxypropylcellulose) (HPC)
[19] = dose: 400.0 mg/kg/injection, schedule: Q04DX002 (ip), vehicle: Klucel (hydroxypropylcellulose) (HPC)

SMILES: COC1N(c2ccccc2)CCN1c1ccccc1
- T/C (dose: 100.0 mg/kg/injection, schedule: Q04DX002 (ip), vehicle: gum acacia): 109 % of control
- T/C (dose: 200.0 mg/kg/injection, schedule: Q04DX002 (ip), vehicle: gum acacia): 106 % of control
- T/C (dose: 400.0 mg/kg/injection, schedule: Q04DX002 (ip), vehicle: gum acacia): 106 % of control

SMILES: c1ccc(C2=NCN=C2c2ccccc2)cc1
- T/C [1]: 99 % of control
- T/C [2]: 101 % of control
- T/C [3]: 92 % of control

SMILES: COc1ccc(OCC(=O)N2CCCCC2)cc1
- T/C (dose: 100.0 mg/kg/injection, schedule: Q01DX009 (ip), vehicle: carboxymethylcellulose (CMC)): 92 % of control
- T/C (dose: 200.0 mg/kg/injection, schedule: Q01DX009 (ip), vehicle: carboxymethylcellulose (CMC)): 106 % of control

SMILES: O=C(Cc1ccccc1)Nc1cccc(C(F)(F)F)c1
- T/C [4]: 91 % of control
- T/C [5]: 95 % of control
- T/C [6]: 98 % of control

SMILES: COc1ccc(Nc2ccc3c4c(cccc24)C(=O)N(c2ccc(OC)cc2)C3=O)cc1
- T/C (dose: 100.0 mg/kg/injection, schedule: Q04DX002 (ip), vehicle: saline with Tween-80): 92 % of control
- T/C (dose: 200.0 mg/kg/injection, schedule: Q04DX002 (ip), vehicle: saline with Tween-80): 95 % of control
- T/C (dose: 400.0 mg/kg/injection, schedule: Q04DX002 (ip), vehicle: saline with Tween-80): 92 % of control

SMILES: O=NN(CCCl)C(=O)Nc1ccc(NC(=O)N(CCCl)N=O)cc1
- T/C [7]: 201 % of control
- T/C [8]: 182 % of control
- T/C [9]: 230 % of control
- T/C [10]: 264 % of control
- T/C (dose: 500.0 mg/kg/injection, schedule: Q01DX001 (ip), vehicle: saline): 285 % of control
- T/C (dose: 600.0 mg/kg/injection, schedule: Q01DX001 (ip), vehicle: saline): 300 % of control
- T/C (dose: 800.0 mg/kg/injection, schedule: Q01DX001 (ip), vehicle: saline): 291 % of control
- T/C (dose: 1000.0 mg/kg/injection, schedule: Q01DX001 (ip), vehicle: saline): 268 % of control

SMILES: O=C(O)c1c(Cl)c(Cl)cc(Cl)c1Cl
- T/C (dose: 75.0 mg/kg/injection, schedule: Q01DX001 (ip), vehicle: saline): 93 % of control
- T/C (dose: 150.0 mg/kg/injection, schedule: Q01DX001 (ip), vehicle: saline): 93 % of control
- T/C [9]: 96 % of control

SMILES: [O-][n+]1ccccc1F
- T/C (dose: 5.0 mg/kg/injection, schedule: Q01DX001 (ip), vehicle: saline): 100 % of control
- T/C (dose: 10.0 mg/kg/injection, schedule: Q01DX001 (ip), vehicle: saline): 102 % of control
- T/C (dose: 20.0 mg/kg/injection, schedule: Q01DX001 (ip), vehicle: saline): 103 % of control
- T/C (dose: 40.0 mg/kg/injection, schedule: Q01DX001 (ip), vehicle: saline): 96 % of control
- T/C (dose: 80.0 mg/kg/injection, schedule: Q01DX001 (ip), vehicle: saline): 98 % of control

SMILES: CCOC(=O)c1ccc(NC(=O)Nc2ccc(Cl)cc2[N+](=O)[O-])cc1
- T/C [4]: 95 % of control and 92 % of control
- T/C [5]: 92 % of control
- T/C [6]: 88 % of control and 92 % of control

SMILES: Oc1ccc(-c2ccccc2)cc1CNC12CC3CC(CC(C3)C1)C2
- T/C [4]: 100 % of control
- T/C [1]: 90 % of control
- T/C [5]: 88 % of control
- T/C [2]: 100 % of control
- T/C [6]: 93 % of control
- T/C [3]: 94 % of control

SMILES: CC(=O)OC(C)COCc1ccccc1 (stereo not given)
- T/C [7]: 107 % of control
- T/C [8]: 89 % of control
- T/C [10]: 100 % of control

SMILES: Nc1cc2scnc2c(N)n1
- T/C (dose: 100.0 mg/kg/injection, schedule: Q01DX001 (ip), vehicle: Klucel (hydroxypropylcellulose) (HPC)): 94 % of control
- T/C (dose: 200.0 mg/kg/injection, schedule: Q01DX001 (ip), vehicle: Klucel (hydroxypropylcellulose) (HPC)): 91 % of control
- T/C (dose: 400.0 mg/kg/injection, schedule: Q01DX001 (ip), vehicle: Klucel (hydroxypropylcellulose) (HPC)): 86 % of control

SMILES: CC(=O)N/C(=C\c1ccccc1)C(N)=O
- T/C (dose: 100.0 mg/kg/injection, schedule: Q04DX003 (ip), vehicle: saline with Tween-80): 91 % of control
- T/C (dose: 200.0 mg/kg/injection, schedule: Q04DX003 (ip), vehicle: saline with Tween-80): 97 % of control
- T/C (dose: 400.0 mg/kg/injection, schedule: Q04DX003 (ip), vehicle: saline with Tween-80): 96 % of control

SMILES: NC(=O)N1CCCCN1C(N)=O
- T/C (dose: 100.0 mg/kg/injection, schedule: Q04DX002 (ip), vehicle: saline): 99 % of control
- T/C (dose: 200.0 mg/kg/injection, schedule: Q04DX002 (ip), vehicle: saline): 111 % of control
- T/C (dose: 400.0 mg/kg/injection, schedule: Q04DX002 (ip), vehicle: saline): 92 % of control

SMILES: CCOC(=O)NNC(=O)OCC
- T/C (dose: 12.5 mg/kg/injection, schedule: Q01DX009 (ip), vehicle: saline with Tween-80): 100 % of control
- T/C (dose: 25.0 mg/kg/injection, schedule: Q01DX009 (ip), vehicle: saline with Tween-80): 97 % of control
- T/C [11]: 97 % of control
- T/C (dose: 50.0 mg/kg/injection, schedule: Q01DX009 (ip), vehicle: saline with Tween-80): 96 % of control and 86 % of control
- T/C [12]: 98 % of control
- T/C (dose: 75.0 mg/kg/injection, schedule: Q01DX001 (ip), vehicle: acetone): 97 % of control
- T/C (dose: 100.0 mg/kg/injection, schedule: Q01DX009 (ip), vehicle: saline with Tween-80): 92 % of control
- T/C [1]: 91 % of control
- T/C (dose: 150.0 mg/kg/injection, schedule: Q01DX001 (ip), vehicle: acetone): 108 % of control

SMILES: CCOc1ccccc1C(=O)Nc1ccc(Br)cc1
- T/C [13]: 91 % of control
- T/C [14]: 91 % of control
- T/C [15]: 96 % of control
- T/C [16]: 102 % of control

SMILES: CC(C)c1ccc(NC(=S)NCCO)cc1
- T/C [17]: 105 % of control
- T/C [18]: 105 % of control
- T/C [19]: 105 % of control

SMILES: O=S=Nc1ccc([N+](=O)[O-])cc1Cl
- T/C [17]: 103 % of control
- T/C [18]: 106 % of control
- T/C [19]: 100 % of control

SMILES: CCC[As](=O)(O)CCC
- T/C (dose: 25.0 mg/kg/injection, schedule: Q01DX009 (ip), vehicle: saline): 107 % of control
- T/C (dose: 50.0 mg/kg/injection, schedule: Q01DX009 (ip), vehicle: saline): 112 % of control
- T/C (dose: 100.0 mg/kg/injection, schedule: Q04DX003 (ip), vehicle: saline): 111 % of control

SMILES: CC12C(=O)OC(=O)C1C1C=CC2C1 (stereo not given)
- T/C [17]: 102 % of control
- T/C (dose: 100.0 mg/kg/injection, schedule: Q04DX003 (ip), vehicle: other): 98 % of control
- T/C [18]: 102 % of control
- T/C (dose: 200.0 mg/kg/injection, schedule: Q04DX003 (ip), vehicle: other): 102 % of control

SMILES: CCOC(=O)C(Br)C(=O)OCC
- T/C (dose: 18.75 mg/kg/injection, schedule: Q01DX009 (ip), vehicle: saline with Tween-80): 97 % of control

SMILES: COc1cc2c(cc1OC)C(C)=[N+](C)CC2
- T/C (dose: 12.5 mg/kg/injection, schedule: Q04DX003 (ip), vehicle: Klucel (hydroxypropylcellulose) (HPC)): 101 % of control
- T/C [11]: 103 % of control
- T/C [12]: 106 % of control

SMILES: CCC[CH2][Ge]([CH2]CCC)([CH2]CCC)[N]1C(=O)c2ccccc2C1=O
- T/C [13]: 102 % of control
- T/C (dose: 50.0 mg/kg/injection, schedule: Q01DX001 (ip), vehicle: saline): 100 % of control
- T/C [14]: 96 % of control
- T/C [7]: 102 % of control
- T/C [15]: 103 % of control
- T/C [8]: 96 % of control
- T/C [16]: 105 % of control
- T/C [10]: 108 % of control

SMILES: O=P(O)(O)/C=C/c1ccccc1
- T/C [7]: 97 % of control
- T/C [1]: 90 % of control
- T/C [8]: 91 % of control
- T/C [2]: 98 % of control
- T/C [10]: 98 % of control

SMILES: O=C(Cl)C1(Br)CC2c3ccccc3C1([N+](=O)[O-])c1ccccc12 (stereo not given)
- T/C [4]: 88 % of control
- T/C [1]: 108 % of control
- T/C [5]: 91 % of control
- T/C [2]: 95 % of control
- T/C [6]: 96 % of control
- T/C [3]: 104 % of control
